B1: Streptococcus agalactiae GAG-PTS EIIA^ΔHA (EIIA for unsaturated hyaluronan disaccharide) (natural protein)
chain: MIKIIIVAHGNFPDGILSSLELIAGHQEYVVGINFIAGMSSNDVRVALQREVIDFKEILVLTDLLGGTPFNVSSALSVEYTDKKIKVLSGLNLSMLMEAVLSRTMFEHVDDLVDKVITSSHEGIVDFSTCLATQTAEATFEGGI
notes: PTS EIIA component of the GAG genetic cluster, gene gbs1890, Streptococcus agalactiae (gbs = strain NEM316); 144 residues (Met1-Ile144); Leu131-Ile144 not seen in the crystal structure; Cloned between NdeI and XhoI of pET21b with a reverse primer without a stop codon, so a C-terminal vector-derived His tag is likely (surmised); No PDB id is printed for the structure solved here; also called …

How the values were obtained:
[1] = molecular target: T1, GAG-PTS (EIIABCD; phosphotransferase system for import of unsaturated hyaluronan disaccharide) (Streptococcus agalactiae, UniProt Q8DXF2+Q8DXF3); test: PTS assay: pyruvate from phosphoenolpyruvate, lactate dehydrogenase-coupled NADH oxidation at […] nm, toluene-treated cells; type: cell-based; conditions: 10 mM sugar, 5 mM phosphoenolpyruvate, 5 mM MgCl2, 10 mM NaF, 0.1 M potassium phosphate pH 7.5, 37°C; EIIB-EIIC-EIID deletion mutant as control
T1 construct: gene SAG1899; native complex in toluene-permeabilized wild-type S. agalactiae cells; endogenous EI and HPr also required; EIIA dimer in crystal, 144 residues; with PTS mannose family transporter subunit IIA (EIIA)

[2] = molecular target: the molecule itself; test: crystal structure; sitting drop vapor diffusion, 20% PEG 3,350, 0.2 M sodium thiocyanate pH 6.9, 20°C; space group P1, six molecules in the asymmetric unit; biological unit judged a dimer with PISA software

T1 sequence (Q8DXF1 entry or part of it, one chain of several, further chain): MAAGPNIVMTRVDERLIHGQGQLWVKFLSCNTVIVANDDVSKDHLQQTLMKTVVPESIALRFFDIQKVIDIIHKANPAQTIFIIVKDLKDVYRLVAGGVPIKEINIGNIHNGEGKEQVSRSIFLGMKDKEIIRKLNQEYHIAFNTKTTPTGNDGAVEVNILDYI
T1 sequence (Q8DXF2 entry or part of it, one chain of several): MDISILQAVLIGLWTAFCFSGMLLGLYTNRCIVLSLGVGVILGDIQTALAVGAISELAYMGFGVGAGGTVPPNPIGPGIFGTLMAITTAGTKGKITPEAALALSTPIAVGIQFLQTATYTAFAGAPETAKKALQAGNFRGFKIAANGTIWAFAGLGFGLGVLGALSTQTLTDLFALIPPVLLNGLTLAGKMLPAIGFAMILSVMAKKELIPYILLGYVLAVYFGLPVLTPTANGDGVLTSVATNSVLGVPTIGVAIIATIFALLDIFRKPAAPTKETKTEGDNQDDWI
T1 sequence (Q8DXF3 entry or part of it, one chain of several): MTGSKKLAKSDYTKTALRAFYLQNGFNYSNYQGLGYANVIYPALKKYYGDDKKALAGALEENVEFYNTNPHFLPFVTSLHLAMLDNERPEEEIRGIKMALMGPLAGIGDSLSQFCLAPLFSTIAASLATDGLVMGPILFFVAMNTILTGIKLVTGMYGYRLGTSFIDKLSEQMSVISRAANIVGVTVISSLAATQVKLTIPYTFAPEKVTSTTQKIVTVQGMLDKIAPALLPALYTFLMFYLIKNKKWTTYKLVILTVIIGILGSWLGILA

Molecule	PTS assay: pyruvate from phosphoenolpyruvate, lactate dehydrogenase-coupled NADH [1]	stoichiometry N [2]
CC(=O)N[C@H]1C(O)O[C@H](CO)[C@@H](O)[C@@H]1O[C@@H]1OC(C(=O)O)=C[C@H](O)[C@H]1O (some centres unmarked) [ΔHA, unsaturated hyaluronan disaccharide]	S. agalactiae imports unsaturated hyaluronan disaccharide using the GAG-PTS encoded in the GAG genetic cluster	
B1		2

From article PMC6837340, “Streptococcal phosphotransferase system imports unsaturated hyaluronan disaccharide derived from host extracellular matrices” (PLoS ONE, 2019)
